Measured values: ChEMBL document CHEMBL4184103, “Cytotoxicity and inhibition of leukemic cell proliferation by sesquiterpenes from rhizomes of Mah-Lueang (Curcuma cf. viridiflora Roxb.)” (Bioorg Med Chem Lett, 2018)
Converted amounts (≈) assume the structure as drawn. “And” between values parts separate entries of the source, which are not always exact repeats. Equal values may be shown once. Blank lines part the entries; values can stand above or below the compound they belong to.

Experiments:
MOLT-4 [1] = assay: Cytotoxicity against human MOLT4 cells assessed as reduction in cell viability; type: functional, cell-based
MOLT-4 [2] = assay: Down regulation of WT1 protein levels in human MOLT4 cells after 48 hrs by Western blot analysis relative to control; type: functional
MOLT-4 [3] = assay: Cytotoxicity against human MOLT4 cells assessed as reduction in cell viability after 48 hrs by MTT assay; type: functional, cell-based
MCF7 [4] = assay: Cytotoxicity against human MCF7 cells assessed as reduction in cell viability after 72 hrs by MTT assay; type: functional, cell-based
HUVEC = assay: Cytotoxicity against human HUVEC cells assessed as reduction in cell viability after 72 hrs by MTT assay; type: functional, cell-based
MOLT-4 [5] = assay: Antiproliferative activity against human MOLT4 cells at IC20 after 48 hrs by trypan blue exclusion assay relative to control; type: functional
KG-1a [6] = assay: Down regulation of WT1 protein levels in human KG1a cells after 48 hrs by Western blot analysis relative to control; type: functional
HT-29 = assay: Cytotoxicity against human HT-29 cells assessed as reduction in cell viability after 72 hrs by MTT assay; type: functional, cell-based
KG-1a [7] = assay: Cytotoxicity against human KG1a cells assessed as reduction in cell viability after 48 hrs by MTT assay; type: functional, cell-based
PC-3 [8] = assay: Cytotoxicity against human PC3 cells assessed as reduction in cell viability after 72 hrs by MTT assay; type: functional, cell-based
KG-1a [9] = assay: Antiproliferative activity against human KG1a cells at IC20 after 48 hrs by trypan blue exclusion assay relative to control; type: functional
MOLT-4 [10] = assay: Down regulation of WT1 protein levels in human MOLT4 cells at 5 to 15 uM after 48 hrs by Western blot analysis relative to control; type: functional
Ca-Ski = assay: Cytotoxicity against human CaSki cells assessed as reduction in cell viability after 72 hrs by MTT assay; type: functional, cell-based
NCI-H187 = assay: Cytotoxicity against human NCI-H187 cells assessed as reduction in cell viability; type: functional, cell-based
KB = assay: Cytotoxicity against human KB cells assessed as reduction in cell viability; type: functional, cell-based
MCF7 [11] = assay: Cytotoxicity against human MCF7 cells assessed as reduction in cell viability; type: functional, cell-based
MOLT-4 [12] = assay: Potency index, ratio of doxorubicin IC50 to compound IC50 for human MOLT4 cells; type: functional
KG-1a [13] = assay: Potency index, ratio of doxorubicin IC50 to compound IC50 for human KG1a cells; type: functional
HL-60 = assay: Growth inhibition of human HL60 cells after 48 hrs by MTT assay; type: functional, cell-based; conditions: HL-60, 48 h
PC-3 [14] = assay: Growth inhibition of human PC3 cells after 48 hrs by MTT assay; type: functional, cell-based; conditions: PC-3, 48 h
HT-1080 = assay: Growth inhibition of human HT1080 cells after 48 hrs by MTT assay; type: functional, cell-based; conditions: HT-1080, 48 h
HeLa = assay: Growth inhibition of human HeLa cells after 48 hrs by MTT assay; type: functional, cell-based
SGC-7901 = assay: Growth inhibition of human SGC7901 cells after 48 hrs by MTT assay; type: functional, cell-based; conditions: SGC-7901, 48 h
HepG2 = assay: Growth inhibition of human HepG2 cells after 48 hrs by MTT assay; type: functional, cell-based; conditions: HepG2, 48 h
[15] = Homo sapiens, MOLT-4, 48 h, read-out: IC50

SMILES: CC[C@]1(O)C[C@H]2CN(CCc3c([nH]c4ccccc34)[C@@](C(=O)OC)(c3cc4c(cc3OC)N(C=O)[C@H]3[C@@](O)(C(=O)OC)[C@H](OC(C)=O)[C@]5(CC)C=CCN6CC[C@]43[C@@H]65)C2)C1 [VINCRISTINE]
IC50 (MOLT-4 [1]): 0.00063 µg/mL (≈ 0.000764 µM)

SMILES: CC(C)=C1C[C@@H]2O[C@@]2(C)CC/C=C(\C)CC1=O
Activity (MOLT-4 [2]): 62.53%
IC50 (MOLT-4 [3]; [15]): > 100 µg/mL
IC50 (MOLT-4 [3]; molt-4): 53 µg/mL (≈ 226 µM)
IC50 (MCF7 [4]; Homo sapiens, MCF7, 72 h): 37.2 µg/mL (≈ 159 µM)
IC50 (HUVEC; Homo sapiens, HUVEC, 72 h): 48.4 µg/mL (≈ 207 µM)
Activity (MOLT-4 [5]): 55.7%
Activity (KG-1a [6]): 92.22%
IC50 (HT-29; Homo sapiens, HT-29, 72 h): 39.6 µg/mL (≈ 169 µM)
IC20 (KG-1a [7]): 20 µg/mL (≈ 85.3 µM)
IC50 (KG-1a [7]): > 100 µg/mL
IC50 (PC-3 [8]; Homo sapiens, PC-3, 72 h): 43.9 µg/mL (≈ 187 µM)
Activity (KG-1a [9]): 24.27%

SMILES: COc1cc(/C=C/C(=O)CC(=O)/C=C/c2ccc(O)c(OC)c2)ccc1O [CURCUMIN]
Activity (MOLT-4 [10]): 90%

SMILES: CC(C)=C1CC(=O)[C@@H](C)CC/C=C(\C)CC1=O
Activity (MOLT-4 [2]): 55.25%
IC50 (MOLT-4 [3]; molt-4): > 100 µg/mL and 35 µg/mL
IC50 (MCF7 [4]; mcf7): 33 µg/mL (≈ 141 µM)
IC50 (HUVEC; huvec): 24 µg/mL (≈ 102 µM)
Activity (MOLT-4 [5]): 49.44%
Activity (KG-1a [6]): 44.3%
IC50 (HT-29; ht-29): 22.7 µg/mL (≈ 96.9 µM)
IC50 (Ca-Ski): 21.7 µg/mL (≈ 92.6 µM)
IC20 (KG-1a [7]): 30 µg/mL (≈ 128 µM)
IC50 (KG-1a [7]): > 100 µg/mL
IC50 (PC-3 [8]; pc-3): 19.1 µg/mL (≈ 81.5 µM)
Activity (KG-1a [9]): 19.92%

SMILES: COc1cccc2c1C(=O)c1c(O)c3c(c(O)c1C2=O)C[C@@](O)(C(=O)CO)C[C@@H]3O[C@H]1C[C@H](N)[C@H](O)[C@H](C)O1 [DOXORUBICIN]
IC50 (MOLT-4 [3]; [15]): 0.46 µg/mL (≈ 0.846 µM)
IC50 (KG-1a [7]): 0.65 µg/mL (≈ 1.2 µM)

SMILES: CC(C)=C1C[C@H]2[C@@H](CC[C@]2(C)O)[C@](C)(O)CC1=O [ZEDOARONDIOL]
Activity (MOLT-4 [2]): 63.17%
IC50 (MOLT-4 [3]; [15]): 77.6 µg/mL (≈ 308 µM)
IC50 (MOLT-4 [3]; molt-4): 49 µg/mL (≈ 194 µM)
Activity (MOLT-4 [5]): 48.99%
IC50 (NCI-H187): > 50 µg/mL
IC50 (KB): > 50 µg/mL
Activity (KG-1a [6]): 95.52%
IC50 (MCF7 [11]): > 50 µg/mL
IC20 (KG-1a [7]): 60 µg/mL (≈ 238 µM)
IC50 (KG-1a [7]): > 100 µg/mL
Activity (KG-1a [9]): 30.48%

IC50 (HL-60): 0.6 to 4 µg/mL (≈ 2.77 to 18.5 µM)
IC50 (PC-3 [14]): 0.6 to 4 µg/mL (≈ 2.77 to 18.5 µM)
IC50 (HT-1080): 0.6 to 4 µg/mL (≈ 2.77 to 18.5 µM)
IC50 (HeLa): 0.6 to 4 µg/mL (≈ 2.77 to 18.5 µM)
IC50 (SGC-7901): 0.6 to 4 µg/mL (≈ 2.77 to 18.5 µM)
IC50 (HepG2): 0.6 to 4 µg/mL (≈ 2.77 to 18.5 µM)
SMILES: C/C1=C\Cc2c(C)coc2C/C(C)=C/CC1 [ISOFURANODIENE]
Ratio IC50 (MOLT-4 [12]): 86
Ratio IC50 (KG-1a [13]): 77
Activity (MOLT-4 [2]): 32.17%
IC50 (MOLT-4 [3]; [15]): 39.6 µg/mL (≈ 183 µM)
IC50 (MOLT-4 [3]; molt-4): 23 µg/mL (≈ 106 µM)
Activity (MOLT-4 [5]): 10.74%
Activity (KG-1a [6]): 58.08%
IC20 (KG-1a [7]): 25 µg/mL (≈ 116 µM)
IC50 (KG-1a [7]): 50.1 µg/mL (≈ 232 µM)
Activity (KG-1a [9]): 19.58%
